Assay results published in patent US4680311A, “Method for the treatment of systemic mycosis” (Taisho Pharmaceutical Co., Ltd., priority 1985, dated 1987).
Read-outs that look alike come from different tables or passages of the source.

Columns and labels:
[1] = tested on: pathogenic human tubercle bacilli; conditions: A. Miyake, Chem. Pharm. Bull., 8, 1071 (1960); cited from earlier work
[2] = tested on: fungi; conditions: A. Miyake, Chem. Pharm. Bull., 8, 1071 (1960); cited from earlier work
[3] = tested on: Candida albicans; format: in vivo, Candida albicans TIMM 0239 in female SPF Crj:CD-1 (ICR) mice; conditions: for Survival rate / Average viable counts recovered (per mouse): twice daily, 14 days; for Survival rate: control 0/5; for Average viable counts recovered (per mouse): kidneys, control 4.87 × 10^7
Protocol: (§1) Female SPF mice Crj:CD-1 (ICR) strain, 4 weeks of age, weighing 18 g±1 g, were used as test animals. One loopful organisms of Candida albicans TIMM 0239 grown on Sabouraud's glucose agar slants were inoculated into Sabouraud's glucose broth containing 0.5% yeast extract. Then cultures were grown aerobically at 37° C. for 18 hours. The organisms were harvested from the cultures, washed twice with sterilized physiological saline, and finally suspended in saline. A total number of organisms was counted in a Burker-Turk hemocytometer. Thus prepared cell suspension was adjusted to contain 10^6 cells/ml, 0.2 ml of which was then injected into the tail vein in each mouse. Infected mice were allocated randomly to different groups. Each group consisted of eight mice.
(§2) (S)-2-amino-5-hydroxy-4-oxopentanoicacid was dissolved in sterilized physiological saline. The mice in the treated groups received the solution of this compound in a dose of 50 mg per kg mouse body weight once daily via an intravenous, subcutaneous, intraperitoneal or oral route for 5 consecutive days, starting on the day of infection. The first treatment was given immediately after a challenge of Candida albicans. The untreated control animals were intravenously given the same volume of saline in place of the test compound solution. The animals were observed daily for 10 days postinfection.
The same experimental conditions as for Test Example 1 were employed, except that all groups of five animals were infected with 1.0×10^6 organisms and treated with either 25, 50 or 100 mg/kg of the test compound twice daily for 14 consecutive days. Duration of observation period was two weeks after infection.
The criteria to evaluate efficacy of the test compound include survival rate and viable counts of Candida albicans recovered from the kidneys of infected animals. Both kidneys were excised from all the animals at the end of the experimental period, homogenized and cultured on Sabouraud's glucose agar plates for assay of viable counts.

[4] = tested on: mice; assay: Acute toxicity in mice; format: in vivo
Excerpt: (§3) This finding leads the inventors to possible usefulness of this substance for the therapy of human cases of candidiasis and other systemic mycoses. This substance is an extremely specific antimycotic agent in that it quite differs in chemical structure from any existing antimycotic agents.

[5] = Acute toxicity in mice; format: in vivo; conditions: mouse, in vivo, mice
Excerpt: as §3

[6] = tested on: Candida albicans; assay: protective and therapeutic efficacy in mice experimentally infected with Candida albicans; format: in vivo
Protocol: as §1
as §2, with “postinfection. […]” for “postinfection.”

[7] = tested on: Candida albicans TIMM 0239; assay: Test Example 1: survival of mice with systemic Candida albicans infection; format: in vivo, Candida albicans TIMM 0239 in female SPF Crj:CD-1 (ICR) mice; conditions: for Survival rate: 50 mg/kg once daily, 5 days, observed 10 days postinfection, control 0/8
Protocol: as §1, §2

## N[C@@H](CC(=O)CO)C(=O)O [(S)-2-amino-5-hydroxy-4-oxopentanoicacid]
[1]
  activity against pathogenic human tubercle bacilli: highly active
[2]
  in vitro antimycotic activity: does hardly exert an in vitro antimycotic activity
[3]; 25 mg/kg oral
  Survival rate: 1/5
  Average viable counts recovered (per mouse): 1.45 × 10^7 per mouse
[3]; 50 mg/kg oral
  Survival rate: 2/5
  Average viable counts recovered (per mouse): 1.41 × 10^6 per mouse
[3]; 100 mg/kg oral
  Survival rate: 5/5
  Average viable counts recovered (per mouse): 2.41 × 10^5 per mouse
[3]; oral, 25, 50 or 100 mg/kg
  correlation between therapeutic efficacy and oral dose: close correlation
[4]; acute toxicity, mice
  toxicity compared with existing antimycotic drugs: lower than that of any existing antimycotic drugs
[4]; mouse, in vivo
  tolerability in experimental animals: very high tolerability
[5]; ip
  LD50: ≥ 5000 mg/kg
[5]; po
  LD50: ≥ 6000 mg/kg
[5]; sc
  LD50: ≥ 5000 mg/kg
[6]
  protective and therapeutic efficacy: significant protective and therapeutic efficacy
[7]; intraperitoneal
  Survival rate: 0/8
[7]; intravenous
  Survival rate: 4/8
[7]; oral
  Survival rate: 4/8
[7]; subcutaneous
  Survival rate: 0/8
[7]; especially by intravenous or oral route, murine systemic candidiasis
  therapeutic efficacy: significant therapeutic efficacy
